The target in data set [1] is T1, Solute carrier family 15 member 2 (Homo sapiens, UniProt Q16348).
T1 sequence (Q16348 whole entry): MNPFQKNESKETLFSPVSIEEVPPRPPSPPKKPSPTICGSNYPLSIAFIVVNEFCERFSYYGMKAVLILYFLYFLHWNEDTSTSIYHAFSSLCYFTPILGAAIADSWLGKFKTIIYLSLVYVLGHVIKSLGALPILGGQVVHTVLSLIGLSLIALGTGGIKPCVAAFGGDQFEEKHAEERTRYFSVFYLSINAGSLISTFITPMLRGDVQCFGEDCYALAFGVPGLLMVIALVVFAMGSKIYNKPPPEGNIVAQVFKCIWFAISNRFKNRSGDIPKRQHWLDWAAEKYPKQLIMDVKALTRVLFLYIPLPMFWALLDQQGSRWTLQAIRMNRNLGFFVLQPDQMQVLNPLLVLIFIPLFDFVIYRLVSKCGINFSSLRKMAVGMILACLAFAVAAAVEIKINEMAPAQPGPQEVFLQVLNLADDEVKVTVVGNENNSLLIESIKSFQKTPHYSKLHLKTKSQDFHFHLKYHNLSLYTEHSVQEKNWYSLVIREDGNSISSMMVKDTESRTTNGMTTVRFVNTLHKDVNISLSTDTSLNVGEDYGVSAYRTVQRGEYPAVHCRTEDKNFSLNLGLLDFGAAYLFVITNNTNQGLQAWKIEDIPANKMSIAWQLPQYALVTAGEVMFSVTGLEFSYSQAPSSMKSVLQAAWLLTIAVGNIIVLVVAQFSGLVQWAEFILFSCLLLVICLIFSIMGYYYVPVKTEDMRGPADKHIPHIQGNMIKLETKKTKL
Put plainly: TP_TRANSPORTER: inhibition of Gly-Sar uptake in SKPT cells. The format is functional, cell-based.

Data set [2] concerns the target T1, Solute carrier family 15 member 2. Put plainly: TP_TRANSPORTER: inhibition of Gly-Sar uptake (Gly-Sar: 50 uM) in PEPT2-expressing HeLa cells. The class given is functional, cell-based.
The target in data set [3] is T2, Solute carrier family 15 member 1 (Homo sapiens, UniProt P46059).
T2 sequence (P46059 whole entry): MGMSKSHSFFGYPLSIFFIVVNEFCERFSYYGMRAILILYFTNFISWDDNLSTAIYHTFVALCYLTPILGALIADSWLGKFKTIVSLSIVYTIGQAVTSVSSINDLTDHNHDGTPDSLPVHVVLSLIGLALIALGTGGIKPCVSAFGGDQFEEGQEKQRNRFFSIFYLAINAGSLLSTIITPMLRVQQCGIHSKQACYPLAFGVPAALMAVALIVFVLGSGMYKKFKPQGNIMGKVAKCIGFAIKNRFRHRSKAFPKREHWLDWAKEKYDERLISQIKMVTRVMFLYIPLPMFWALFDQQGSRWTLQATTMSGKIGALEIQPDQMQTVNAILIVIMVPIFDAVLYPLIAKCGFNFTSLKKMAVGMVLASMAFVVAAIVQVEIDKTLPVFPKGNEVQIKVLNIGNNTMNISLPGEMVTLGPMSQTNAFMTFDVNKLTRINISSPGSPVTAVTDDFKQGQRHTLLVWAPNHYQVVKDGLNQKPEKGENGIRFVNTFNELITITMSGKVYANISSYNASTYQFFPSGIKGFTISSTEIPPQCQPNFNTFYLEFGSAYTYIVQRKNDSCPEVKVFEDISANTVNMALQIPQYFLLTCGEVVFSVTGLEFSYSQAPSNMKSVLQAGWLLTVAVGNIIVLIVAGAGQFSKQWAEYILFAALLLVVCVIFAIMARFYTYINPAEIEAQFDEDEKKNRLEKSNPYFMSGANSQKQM
Put plainly: TP_TRANSPORTER: inhibition of Gly-Sar uptake (Gly-Sar: 5 uM) in Caco-2 cells. The class given is functional, cell-based.

Data set [4] deals with T2, Solute carrier family 15 member 1.
The target in data set [5] is T3, Solute carrier family 15 member 2 (Homo sapiens) (UniProt Q16348).
T3 sequence (whole entry): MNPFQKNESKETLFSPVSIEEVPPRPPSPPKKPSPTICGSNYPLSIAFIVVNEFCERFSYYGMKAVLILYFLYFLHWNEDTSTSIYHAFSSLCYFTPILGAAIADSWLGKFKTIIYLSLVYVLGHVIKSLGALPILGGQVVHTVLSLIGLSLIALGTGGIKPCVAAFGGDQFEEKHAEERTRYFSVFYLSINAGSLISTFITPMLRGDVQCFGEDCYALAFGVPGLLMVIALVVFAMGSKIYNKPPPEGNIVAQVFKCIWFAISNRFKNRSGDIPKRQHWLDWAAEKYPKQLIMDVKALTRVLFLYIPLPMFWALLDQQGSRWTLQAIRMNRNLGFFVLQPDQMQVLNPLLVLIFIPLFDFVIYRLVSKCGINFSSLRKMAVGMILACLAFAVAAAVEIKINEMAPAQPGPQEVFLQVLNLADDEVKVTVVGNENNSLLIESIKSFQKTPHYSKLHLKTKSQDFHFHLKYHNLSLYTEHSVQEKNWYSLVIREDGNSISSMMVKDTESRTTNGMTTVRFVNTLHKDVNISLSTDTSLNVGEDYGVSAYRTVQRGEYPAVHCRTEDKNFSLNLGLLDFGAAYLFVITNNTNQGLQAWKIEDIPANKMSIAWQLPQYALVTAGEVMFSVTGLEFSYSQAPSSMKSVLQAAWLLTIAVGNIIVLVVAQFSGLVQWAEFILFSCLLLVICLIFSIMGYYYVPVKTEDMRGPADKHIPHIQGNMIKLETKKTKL
Briefly: TP_TRANSPORTER: uptake in PEPT2-expressing HeLa cells. The format is functional, cell-based.

Data set [6] has as its target T1, Solute carrier family 15 member 2. Briefly: TP_TRANSPORTER: inhibition of Cephalexin uptake in SKPT cells. The format is functional, cell-based.
Substrate in data set [7]: CC1=C(C(=O)O)N2C(=O)[C@@H](NC(=O)[C@H](N)c3ccccc3)[C@H]2SC1
Put plainly: TP_TRANSPORTER: uptake in SKPT cells. The class given is functional, cell-based.

Peptide text beside a SMILES is read from it.

In turn, `CC1(C)S[C@@H]2[C@H](NC(=O)C3(N)CCCCC3)C(=O)N2[C@H]1C(=O)O` [CYCLACILLIN] returned an inhibitory constant (Ki) in data set [1] of 39.1 µM. The results for the IC50 in data set [2], in data set [3] and in data set [4] were 610 µM, 600 µM and 350 µM, respectively.

For the molecule `CC1=C(C(=O)O)N2C(=O)[C@@H](NC(=O)[C@H](N)c3ccc(O)cc3)[C@H]2SC1` [CEFADROXIL], in data set [1], affinity was put at a Ki of 2.8 µM. Also, the half-maximal inhibitory concentration (IC50) in data set [2] amounted to 66 µM; in data set [3], 5400 µM; in data set [4], 870 µM.

With `CC1=C(C(=O)O)N2C(=O)[C@@H](NC(=O)[C@H](N)c3ccccc3)[C@H]2SC1` [CEPHALEXIN ANHYDROUS], in data set [1], the Ki worked out at 68.2 µM. In addition, the Activity result in data set [5] is “substrate [+]”.

In data set [6], `CN(CC(=O)O)C(=O)CN` [GLYCYLSARCOSINE] (HELM PEPTIDE1{G.[Sar]}$$$$V2.0) returned an inhibition constant Ki of 64 µM.

B1: Solute carrier family 15 member 2 (Rattus norvegicus), Q63424 (protein)
chain: MNPFQKNESKETLFSPVSTEEMLPRPPSPPKKSPPKIFGSSYPVSIAFIVVNEFCERFSYYGMKAVLTLYFLYFLHWNEDTSTSVYHAFSSLCYFTPILGAAIADSWLGKFKTIIYLSLVYVLGHVFKSLGAIPILGGKMLHTILSLVGLSLIALGTGGIKPCVAAFGGDQFEEEHAEARTRYFSVFYLAINAGSLISTFITPMLRGDVKCFGQDCYALAFGVPGLLMVLALVVFAMGSKMYRKPPPEGNIVAQVIKCIWFALCNRFRNRSGDLPKRQHWLDWAAEKYPKHLIADVKALTRVLFLYIPLPMFWALLDQQGSRWTLQANKMNGDLGFFVLQPDQMQVLNPFLVLIFIPLFDLVIYRLISKCRINFSSLRKMAVGMILACLAFAVAALVETKINGMIHPQPASQEIFLQVLNLADGDVKVTVLGSRNNSLLVESVSSFQNTTHYSKLHLEAKSQDLHFHLKYNSLSVHNDHSVEEKNCYQLLIHQDGESISSMLVKDTGIKPANGMAAIRFINTLHKDLNISLDTDAPLSVGKDYGVSAYRTVLRGKYPAVHCETEDKVFSLDLGQLDFGTTYLFVITNITSQGLQAWKAEDIPVNKLSIAWQLPQYVLVTAAEVMFSVTGLEFSYSQAPSSMKSVLQAAWLLTVAVGNIIVLVVAQFSGLAQWAEFVLFSCLLLVVCLIFSVMAYYYVPLKSEDTREATDKQIPAVQGNMINLETKNTRL
Turning to B1, in data set [7], the Km stood at 49 µM.

By Ki is commonly meant the equilibrium dissociation constant of an inhibitor or competing ligand from its target. One may read the IC50 as the concentration needed to halve the response being measured. Read a high IC50 as weaker potency in that assay. For orientation: Km means the concentration of substrate that gives half-maximal velocity.

Source of the values: ChEMBL document CHEMBL2074542, “Differential recognition of beta -lactam antibiotics by intestinal and renal peptide transporters, PEPT 1 and PEPT 2” (J Biol Chem, 1995).
